Laboratory results: ChEMBL document CHEMBL1201862, “PubChem BioAssay data set” (2004)
Activity calls are given as the source filed them.

How the values were obtained:
[1] = target: T1, Short transient receptor potential channel 4 (Mus musculus, UniProt Q9QUQ5); experiment: block of DAMGO-driven TRPC4 calcium entry – cell-based, HEK293 TRPC4/mu-opioid, Fluo-4 calcium, dose response (AID 434942); format: functional;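 also: potency of inhibitors blocking the TRPC4 calcium response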
T1 sequence (Q9QUQ5 whole entry): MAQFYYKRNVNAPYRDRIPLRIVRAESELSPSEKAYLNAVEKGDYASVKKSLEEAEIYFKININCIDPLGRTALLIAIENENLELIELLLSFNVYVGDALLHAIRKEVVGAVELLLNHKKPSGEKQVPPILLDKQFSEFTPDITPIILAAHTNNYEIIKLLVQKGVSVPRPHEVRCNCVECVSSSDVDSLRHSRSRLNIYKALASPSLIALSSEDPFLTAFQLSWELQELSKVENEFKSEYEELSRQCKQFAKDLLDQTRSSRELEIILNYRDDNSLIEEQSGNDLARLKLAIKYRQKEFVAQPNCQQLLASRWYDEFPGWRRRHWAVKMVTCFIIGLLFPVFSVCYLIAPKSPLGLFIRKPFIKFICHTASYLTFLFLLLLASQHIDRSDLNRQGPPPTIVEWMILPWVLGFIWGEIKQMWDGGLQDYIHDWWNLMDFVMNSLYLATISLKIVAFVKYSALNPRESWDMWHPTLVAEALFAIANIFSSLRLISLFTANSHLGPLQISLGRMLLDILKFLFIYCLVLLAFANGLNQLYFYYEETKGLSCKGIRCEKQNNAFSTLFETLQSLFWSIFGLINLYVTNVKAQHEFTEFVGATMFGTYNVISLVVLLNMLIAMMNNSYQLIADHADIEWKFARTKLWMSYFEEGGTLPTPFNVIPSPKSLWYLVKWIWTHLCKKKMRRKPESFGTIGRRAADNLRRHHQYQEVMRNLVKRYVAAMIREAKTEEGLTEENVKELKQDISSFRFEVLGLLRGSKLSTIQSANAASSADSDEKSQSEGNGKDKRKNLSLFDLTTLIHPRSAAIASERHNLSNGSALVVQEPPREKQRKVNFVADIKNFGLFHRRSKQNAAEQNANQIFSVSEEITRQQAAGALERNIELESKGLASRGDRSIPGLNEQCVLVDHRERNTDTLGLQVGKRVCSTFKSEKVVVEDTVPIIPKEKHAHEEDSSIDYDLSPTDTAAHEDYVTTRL

Mu-type opioid receptor = Mu-type opioid receptor (Homo sapiens, UniProt P35372); experiment: (§1) Counterscreen for agonists of heterodimerization of the mu 1 (OPRM1) and delta 1 (OPRD1) opioid receptors: Luminescence-based cell-based high throughput dose response assay to identify agonists of OPRM1 homodimerization.; format: functional
Sequence of Mu-type opioid receptor (P35372 whole entry): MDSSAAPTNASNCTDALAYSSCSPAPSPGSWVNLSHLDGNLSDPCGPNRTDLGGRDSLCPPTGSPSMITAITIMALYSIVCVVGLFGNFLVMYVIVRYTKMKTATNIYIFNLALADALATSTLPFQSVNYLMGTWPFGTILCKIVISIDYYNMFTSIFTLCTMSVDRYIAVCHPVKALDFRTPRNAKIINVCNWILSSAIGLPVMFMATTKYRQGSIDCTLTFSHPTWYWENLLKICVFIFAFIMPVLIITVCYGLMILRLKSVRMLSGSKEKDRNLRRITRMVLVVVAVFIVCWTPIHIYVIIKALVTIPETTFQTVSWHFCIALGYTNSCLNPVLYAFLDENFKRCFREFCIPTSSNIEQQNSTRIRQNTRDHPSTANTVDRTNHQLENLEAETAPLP

[2] = target: Delta-type opioid receptor (Homo sapiens, UniProt P41143); experiment: as §1, with “of OPRD1” for “of OPRM1”, “homodimerization. [Related pubchem assays (depositor defined):AID504326, AID504355, AID504692, AID504904, AID504905]” for “homodimerization.”; format: functional
Sequence of Delta-type opioid receptor (P41143 whole entry): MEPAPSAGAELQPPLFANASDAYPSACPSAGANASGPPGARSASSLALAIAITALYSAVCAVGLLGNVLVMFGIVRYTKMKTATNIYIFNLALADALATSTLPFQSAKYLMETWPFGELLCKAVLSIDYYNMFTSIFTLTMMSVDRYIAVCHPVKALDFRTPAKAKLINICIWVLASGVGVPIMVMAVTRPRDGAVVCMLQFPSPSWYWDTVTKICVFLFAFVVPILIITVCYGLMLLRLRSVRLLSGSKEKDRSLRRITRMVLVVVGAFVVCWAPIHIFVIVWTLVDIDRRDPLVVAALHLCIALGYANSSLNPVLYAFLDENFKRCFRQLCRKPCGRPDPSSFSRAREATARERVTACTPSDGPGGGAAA

[3] = target: 5-hydroxytryptamine receptor 5A (Homo sapiens, UniProt P47898); experiment: Counterscreen for agonists of OPRM1-OPRD1 heterodimerization: luminescence-based cell-based high throughput dose response assay to identify agonists of 5-hydroxytryptamine (serotonin) 5A receptor (HTR5A). [Related pubchem assays (depositor defined):AID504326, AID504355, AID504692, AID504904, AID504905]; format: functional
Sequence of 5-hydroxytryptamine receptor 5A (P47898 whole entry): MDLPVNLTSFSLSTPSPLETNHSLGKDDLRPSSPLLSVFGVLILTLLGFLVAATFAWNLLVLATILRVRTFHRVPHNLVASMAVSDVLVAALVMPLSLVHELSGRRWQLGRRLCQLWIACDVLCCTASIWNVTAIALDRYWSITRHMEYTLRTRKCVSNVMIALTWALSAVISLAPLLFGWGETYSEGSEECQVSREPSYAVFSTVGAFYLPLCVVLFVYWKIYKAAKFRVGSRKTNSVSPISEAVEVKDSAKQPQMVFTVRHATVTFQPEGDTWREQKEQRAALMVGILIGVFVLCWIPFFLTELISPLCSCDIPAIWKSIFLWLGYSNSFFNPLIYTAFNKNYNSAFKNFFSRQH

HEK293 [4] = experiment: cells; format: functional, cell-based; details: Homo sapiens
[5] = target: Nucleotide-binding oligomerization domain-containing protein 2 (Homo sapiens, UniProt Q9HC29); experiment: inhibition of NOD2-driven NF-kB reporter – cell-based, luminescence, uHTS, HEK293 (AID 1566); format: functional
Sequence of Nucleotide-binding oligomerization domain-containing protein 2 (Q9HC29 whole entry, the tested form may be a part): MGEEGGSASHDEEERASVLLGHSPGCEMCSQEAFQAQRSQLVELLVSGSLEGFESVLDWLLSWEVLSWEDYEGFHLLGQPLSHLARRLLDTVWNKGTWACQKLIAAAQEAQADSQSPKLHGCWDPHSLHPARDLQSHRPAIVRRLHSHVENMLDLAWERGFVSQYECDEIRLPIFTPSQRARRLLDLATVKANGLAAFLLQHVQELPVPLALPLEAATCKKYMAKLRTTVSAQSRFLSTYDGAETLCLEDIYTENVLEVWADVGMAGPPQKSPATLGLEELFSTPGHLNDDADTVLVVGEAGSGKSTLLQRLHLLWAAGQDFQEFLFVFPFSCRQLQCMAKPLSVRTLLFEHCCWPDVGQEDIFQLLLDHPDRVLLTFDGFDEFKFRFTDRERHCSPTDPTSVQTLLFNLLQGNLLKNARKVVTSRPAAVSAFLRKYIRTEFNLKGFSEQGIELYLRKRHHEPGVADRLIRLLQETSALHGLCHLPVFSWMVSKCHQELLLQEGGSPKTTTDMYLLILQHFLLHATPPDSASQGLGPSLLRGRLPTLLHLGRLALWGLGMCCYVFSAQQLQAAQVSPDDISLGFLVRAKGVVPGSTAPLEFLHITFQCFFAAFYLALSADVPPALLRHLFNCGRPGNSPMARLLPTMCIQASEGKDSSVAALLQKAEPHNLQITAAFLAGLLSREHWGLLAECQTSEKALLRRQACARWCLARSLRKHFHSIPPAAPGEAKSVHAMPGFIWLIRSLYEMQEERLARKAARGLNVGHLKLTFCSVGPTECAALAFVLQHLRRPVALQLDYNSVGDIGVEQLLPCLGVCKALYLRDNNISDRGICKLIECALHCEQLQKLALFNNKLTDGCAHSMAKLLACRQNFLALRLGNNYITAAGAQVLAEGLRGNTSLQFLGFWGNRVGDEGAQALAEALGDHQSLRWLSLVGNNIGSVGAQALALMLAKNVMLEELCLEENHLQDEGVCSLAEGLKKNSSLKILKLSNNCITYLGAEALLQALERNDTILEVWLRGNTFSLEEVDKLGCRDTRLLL

HEK293 [6] = experiment: NOD2 signaling inhibitors in MDP-stimulated cells, cell-based, uHTS, luminescence (AID 2001); format: functional; details: Homo sapiens
HEK293 [7] = experiment: inhibition of NOD1-driven NF-kB reporter – cell-based, luminescence, uHTS, primary screen (AID 1578); format: functional; details: Homo sapiens
HEK293 [8] = experiment: cells; format: functional, cell-based; details: Homo sapiens; remark: listed apart in the source
HEK293 [9] = experiment: cells; format: functional, cell-based; details: Homo sapiens; remark: listed apart in the source
[10] = target: Dual specificity protein kinase CLK1 (Homo sapiens, UniProt P49759); experiment: inhibition of human CLK1 activity – biochemical, cherry-picked samples, selectivity assay for Dyrk1A inhibitor project, dose response (AID 588811)
Sequence of Dual specificity protein kinase CLK1 (P49759 whole entry, the tested form may be a part): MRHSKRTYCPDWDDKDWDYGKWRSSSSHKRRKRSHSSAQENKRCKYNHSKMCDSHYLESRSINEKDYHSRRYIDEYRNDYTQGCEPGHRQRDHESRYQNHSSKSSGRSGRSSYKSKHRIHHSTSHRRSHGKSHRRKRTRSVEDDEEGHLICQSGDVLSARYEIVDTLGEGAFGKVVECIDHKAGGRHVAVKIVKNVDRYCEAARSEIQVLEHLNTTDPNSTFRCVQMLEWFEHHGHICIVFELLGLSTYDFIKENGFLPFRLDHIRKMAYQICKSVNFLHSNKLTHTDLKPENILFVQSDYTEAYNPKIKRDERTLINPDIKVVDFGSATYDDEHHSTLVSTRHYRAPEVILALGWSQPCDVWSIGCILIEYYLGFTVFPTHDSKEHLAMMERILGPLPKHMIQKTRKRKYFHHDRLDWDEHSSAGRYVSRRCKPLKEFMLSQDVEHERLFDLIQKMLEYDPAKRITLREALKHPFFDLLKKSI

Hexokinase-1 = Hexokinase-1 (Homo sapiens, UniProt P19367); experiment: SAR analysis of small molecule inhibitors of hexokinase domain containing I (HKDC1) in the hexokinase 1 selectivity assay. [Related pubchem assays (depositor defined):AID493160, AID493190]; format: functional
Sequence of Hexokinase-1 (P19367 whole entry, the tested form may be a part): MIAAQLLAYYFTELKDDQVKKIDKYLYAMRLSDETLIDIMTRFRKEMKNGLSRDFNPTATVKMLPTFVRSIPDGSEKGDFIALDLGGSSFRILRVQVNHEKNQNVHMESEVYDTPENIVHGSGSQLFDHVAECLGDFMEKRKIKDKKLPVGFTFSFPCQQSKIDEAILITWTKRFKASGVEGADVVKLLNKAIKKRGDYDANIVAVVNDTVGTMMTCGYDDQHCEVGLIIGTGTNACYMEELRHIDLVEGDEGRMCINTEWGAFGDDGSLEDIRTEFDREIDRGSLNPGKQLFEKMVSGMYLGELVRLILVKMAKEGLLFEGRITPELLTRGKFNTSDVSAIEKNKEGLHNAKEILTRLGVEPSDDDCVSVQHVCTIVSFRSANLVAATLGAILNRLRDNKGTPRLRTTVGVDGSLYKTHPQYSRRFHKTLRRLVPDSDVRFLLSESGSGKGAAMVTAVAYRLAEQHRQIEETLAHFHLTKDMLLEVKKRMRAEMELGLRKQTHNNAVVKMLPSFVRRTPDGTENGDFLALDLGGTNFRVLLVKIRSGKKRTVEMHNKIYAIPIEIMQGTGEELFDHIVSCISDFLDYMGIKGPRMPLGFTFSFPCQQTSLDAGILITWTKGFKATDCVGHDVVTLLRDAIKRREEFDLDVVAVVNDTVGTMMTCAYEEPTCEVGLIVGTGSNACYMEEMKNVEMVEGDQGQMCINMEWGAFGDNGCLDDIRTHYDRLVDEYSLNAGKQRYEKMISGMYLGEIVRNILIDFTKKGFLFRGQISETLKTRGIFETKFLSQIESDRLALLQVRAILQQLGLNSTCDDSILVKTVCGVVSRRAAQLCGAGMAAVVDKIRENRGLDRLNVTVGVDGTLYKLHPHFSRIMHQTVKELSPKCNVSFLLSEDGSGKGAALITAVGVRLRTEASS

Hexokinase HKDC1 = target: T2, Hexokinase HKDC1 (Homo sapiens, UniProt Q2TB90); experiment: SAR analysis of small molecule inhibitors of hexokinase domain containing I (HKDC1). [Related pubchem assays (depositor defined):AID493160, AID493190]; format: functional
T2 sequence (Q2TB90 whole entry): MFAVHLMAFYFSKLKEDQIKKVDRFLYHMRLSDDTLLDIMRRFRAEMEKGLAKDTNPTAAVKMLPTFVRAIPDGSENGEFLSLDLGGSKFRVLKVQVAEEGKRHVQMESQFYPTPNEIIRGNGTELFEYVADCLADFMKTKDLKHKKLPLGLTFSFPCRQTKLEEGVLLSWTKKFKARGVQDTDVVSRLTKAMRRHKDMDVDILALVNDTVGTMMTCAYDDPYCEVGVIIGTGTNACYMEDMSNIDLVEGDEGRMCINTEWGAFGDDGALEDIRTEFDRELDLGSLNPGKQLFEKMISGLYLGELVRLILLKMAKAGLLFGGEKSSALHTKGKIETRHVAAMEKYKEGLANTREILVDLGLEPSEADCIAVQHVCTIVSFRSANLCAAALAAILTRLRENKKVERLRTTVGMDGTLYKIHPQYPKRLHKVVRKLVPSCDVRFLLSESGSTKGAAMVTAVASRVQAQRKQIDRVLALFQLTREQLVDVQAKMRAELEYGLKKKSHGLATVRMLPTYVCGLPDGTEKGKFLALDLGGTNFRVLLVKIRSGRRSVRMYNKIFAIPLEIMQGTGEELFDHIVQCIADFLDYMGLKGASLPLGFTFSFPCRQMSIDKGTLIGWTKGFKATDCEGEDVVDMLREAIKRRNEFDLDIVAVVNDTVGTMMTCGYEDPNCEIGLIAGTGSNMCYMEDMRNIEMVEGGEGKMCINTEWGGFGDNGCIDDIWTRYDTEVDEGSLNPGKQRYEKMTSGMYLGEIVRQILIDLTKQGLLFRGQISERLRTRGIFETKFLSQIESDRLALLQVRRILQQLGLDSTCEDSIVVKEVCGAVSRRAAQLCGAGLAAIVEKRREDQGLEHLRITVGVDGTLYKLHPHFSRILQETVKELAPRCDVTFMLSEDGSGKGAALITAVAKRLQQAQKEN

IC50 (Hexokinase-1) | IC50 (Hexokinase HKDC1) | SMILES | EC50 [1] | EC50 (Mu-type opioid receptor) | EC50 [2] | EC50 [3] | further results
 |  | O=C(OC1C2CCC1C1CN(CCc3ccccc3)CC12)c1ccccc1 (centres undefined) | 3.35 µM (active) | > 92.5 µM (inactive) | > 92.5 µM (inactive) | > 92.5 µM (inactive) | 
 |  | Cc1nc(N2CCN(c3ccccn3)CC2)c2c(C)c(C(=O)N3CCN(c4ccc(F)cc4)CC3)sc2n1 | 1.19 µM (active) | 10.8 µM (inactive) | > 92.4 µM (inactive) | > 92.4 µM (inactive) | IC50 (HEK293 [4]): 17.1 µM (active); EC50 [5]: 5.26 µM (active); IC50 (HEK293 [6]): 6.95 µM (active); EC50 (HEK293 [7]): 6.14 µM (active); IC50 (HEK293 [8]): > 20 µM (inactive); IC50 (HEK293 [9]): 6.02 µM (active)
 |  | c1nc(NCC2CCCOC2)c2cc(-c3ccc4c(c3)OCO4)ccc2n1 (centres undefined) |  |  |  |  | AC50 [10]: 0.0101 µM (active)
> 80 µM (inactive) | > 80 µM (inactive) | O=c1c2ccccc2nc(/C=C/c2cccnc2)n1Cc1ccccc1Cl |  |  |  |  | 
> 80 µM (inactive) | > 80 µM (inactive) | O=c1c2ccccc2nc(/C=C/c2cccc(Cl)c2)n1Cc1ccccc1 |  |  |  |  | 
